The source of these data is PMC3569073 (Journal of medicinal chemistry, 2013).

Values joined by “and” are separate entries in the source; they are usually repeats but may differ in a detail not shown here. Identical values can stand only once. Like-named read-outs stand apart in the source and are kept apart here.

The subject of data set [1] is 68 discrete GPCRs, ion channels and transporters. Type of data set: binding. The note with it: 10 μM.
Another data set has as its target SARS-CoV 3CLpro (Severe acute respiratory syndrome coronavirus, UniProt P0C6X7). As to the kind of experiment: biochemical. The note with it: for inhibition at 100 µM: read-out: 3CLpro inhibition level. In kind it is biochemical.
Another data set has as its system SARS-CoV. As to conditions: cited from earlier work.
For another data set, the target named is SARS 3CLpro. As to conditions: cited from earlier work.
For data set [2], the system named is SARS-CoV infected Vero cells. As to conditions: cited from earlier work.
The target in data set [3] is T1, 3CLpro enzyme from the mouse coronavirus MHV (Murine coronavirus, UniProt P0C6X9).
T1 sequence (P0C6X9 3334-3635 limits assumed): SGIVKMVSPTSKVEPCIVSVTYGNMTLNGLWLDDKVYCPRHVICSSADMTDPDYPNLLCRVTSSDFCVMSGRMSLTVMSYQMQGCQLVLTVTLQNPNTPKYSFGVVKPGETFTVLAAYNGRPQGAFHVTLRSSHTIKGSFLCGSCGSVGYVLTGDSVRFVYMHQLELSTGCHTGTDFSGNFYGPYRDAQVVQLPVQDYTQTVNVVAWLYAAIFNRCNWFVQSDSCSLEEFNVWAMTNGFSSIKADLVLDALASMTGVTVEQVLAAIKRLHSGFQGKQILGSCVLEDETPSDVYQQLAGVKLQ
Type of data set: biochemical. The note with it: 100 μM.

In data set [4] the target is T2, 3CLpro enzyme from the human coronavirus HKU1 (Human coronavirus HKU1, UniProt P0C6X2).
T2 sequence (P0C6X2 3335-3637 limits assumed): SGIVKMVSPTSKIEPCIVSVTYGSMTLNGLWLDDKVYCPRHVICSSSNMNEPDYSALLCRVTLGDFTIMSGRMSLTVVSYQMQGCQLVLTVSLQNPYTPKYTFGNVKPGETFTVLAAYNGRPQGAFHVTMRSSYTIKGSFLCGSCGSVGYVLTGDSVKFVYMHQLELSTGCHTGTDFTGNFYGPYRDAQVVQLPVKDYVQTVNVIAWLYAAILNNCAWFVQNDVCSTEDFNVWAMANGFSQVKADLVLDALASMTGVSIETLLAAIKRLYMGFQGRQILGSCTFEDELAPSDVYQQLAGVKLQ
In kind it is biochemical. As to conditions: 100 μM.

A word on the solubility: it is the dissolved amount per volume that the medium holds. For the molecule `CC(C)(C)NC(=O)[C@@H](c1cccnc1)N(C(=O)c1ccco1)c1ccc(C(C)(C)C)cc1` [16-(R), (R)-N-(4-(tert-butyl)phenyl)-N-(2-(tert-butylamino)-2-oxo-1-(pyridin-3-yl)ethyl)furan-2-carboxamide], the solubility in the data set “physchem” is ≤ 95 µg/mL and ≤ 219 µM. Moreover, in data set [1], the “activity in lead-profiling screen” value is recorded as below 50%. As a reminder, the IC50 is the point on the concentration scale where inhibition reaches its midpoint. For `CCC(C)c1ccc(N(C(=O)c2ccco2)C(C(=O)NC2CCCC2)c2cccnc2)cc1` (stereo not shown) [Compound 14], the IC50 at SARS-CoV 3CLpro was below 10000 nM. In general, inhibition refers to the change of the read-out against control, counted positive when it falls. `CC(C)(C)NC(=O)C(c1cccnc1)N(C(=O)c1ccco1)c1ccc(C(C)(C)C)cc1` (stereo not shown) [Compound 16]: the inhibition at 100 µM on SARS-CoV 3CLpro was above 50%. With `CC(C)c1ccc(N(C(=O)c2ccco2)C(C(=O)NC(C)(C)C)c2cccnc2)cc1` (stereo not shown) [Compound 17, N-(2-(tert-butylamino)-2-oxo-1-(pyridin-3-yl)ethyl)-N-(4-isopropylphenyl)furan-2-carboxamide], at SARS-CoV 3CLpro (read-out: 3CLpro IC50), the IC50 was below 50000 nM. Further, the inhibition at 100 µM at SARS-CoV 3CLpro was above 50%. With `CC(C)(C)NC(=O)C(c1cccnc1)N(C(=O)c1ccco1)C1CC1` (stereo not shown) [Compound 18, N-(2-(tert-butylamino)-2-oxo-1-(pyridin-3-yl)ethyl)-N-cyclopropylfuran-2-carboxamide], the “3CLpro inhibition, SAR result in words” value on SARS-CoV 3CLpro is “deleterious for inhibition”.

With `CC(C)(C)NC(=O)C(c1cccnc1)N(C(=O)c1ccco1)c1ccc(F)cc1` (stereo not shown) [Compound 19, N-(2-(tert-butylamino)-2-oxo-1-(pyridin-3-yl)ethyl)-N-(4-fluorophenyl)furan-2-carboxamide], the “3CLpro inhibition, SAR result in words” value at SARS-CoV 3CLpro is reported as “deleterious for inhibition”. Regarding `CC(C)(C)NC(=O)C(c1ccsc1)N(C(=O)c1ccco1)c1ccc(C(C)(C)C)cc1` (stereo not shown) [Compound 20, N-(4-(tert-butyl)phenyl)-N-(2-(tert-butylamino)-2-oxo-1-(thiophen-3-yl)ethyl)furan-2-carboxamide], on SARS-CoV 3CLpro, the “3CLpro inhibition, SAR result in words” value was “complete loss of inhibition activity”.

For the molecule `Cc1ccc(C(=O)N(c2ccc(C(C)(C)C)cc2)C(C(=O)NC(C)(C)C)c2cccnc2)o1` (stereo not shown) [Compound 21], the “3CLpro inhibition, SAR result in words” value on SARS-CoV 3CLpro is given as “negatively impacted activity”.

Regarding `Cc1ccoc1C(=O)N(c1ccc(C(C)(C)C)cc1)C(C(=O)NC(C)(C)C)c1cccnc1` (stereo not shown) [Compound 26], at SARS-CoV 3CLpro, the “3CLpro inhibition, SAR result in words” value is listed as “negatively impacted activity”.

For `CC(C)(C)NC(=O)C(c1cccnc1)N(C(=O)c1cccs1)c1ccc(C(C)(C)C)cc1` (stereo not shown) [Compound 27, N-(4-(tert-butyl)phenyl)-N-(2-(tert-butylamino)-2-oxo-1-(pyridin-3-yl)ethyl)thiophene-2-carboxamide], on SARS-CoV 3CLpro, the “3CLpro inhibition, SAR result in words” value is “weakly tolerated” and the “fold loss of 3CLpro activity relative to furan 16” value was determined as 10 fold. On to `CC(C)(C)NC(=O)C(c1cccnc1)N(C(=O)c1c[nH]cn1)c1ccc(C(C)(C)C)cc1` (stereo not shown) [Compound 31, N-(4-(tert-butyl)phenyl)-N-(2-(tert-butylamino)-2-oxo-1-(pyridin-3-yl)ethyl)-1H-imidazole-4-carboxamide], for which the “3CLpro inhibition, SAR result in words” value on SARS-CoV 3CLpro was “nearly equipotent”.

For the molecule `CC(C)(C)NC(=O)C(c1cccnc1)N(C(=O)C1CCCO1)c1ccc(C(C)(C)C)cc1` (stereo not shown) [Compound 32], on SARS-CoV 3CLpro, the IC50 is above 50000 nM and the “fold loss of 3CLpro activity relative to furan 16” value is above 10 fold. For `CC(C)(C)NC(=O)C(c1cccnc1)N(C(=O)c1ccc[nH]1)c1ccc(C(C)(C)C)cc1` (stereo not shown) [Compound 37], on SARS-CoV 3CLpro, the “3CLpro inhibition, SAR result in words” value is “completely inactive”.

`CC(C)(C)NC(=O)C(c1cccnc1)N(C(=O)c1ccc(Cl)o1)c1ccc(C(C)(C)C)cc1` (stereo not shown) [Compound 50]: the “3CLpro inhibition, SAR result in words” value at SARS-CoV 3CLpro is “nearly equipotent to 16”. Take `CC(C)(C)NC(=O)C(c1cccnc1)N(C(=O)Cc1cnc[nH]1)c1ccc(C(C)(C)C)cc1` (stereo not shown) [Compound 51]: the “3CLpro inhibition, SAR result in words” value at SARS-CoV 3CLpro is reported as “deleterious for inhibition”.

On to `Cn1cnc(C(=O)N(c2ccc(C(C)(C)C)cc2)C(C(=O)NC(C)(C)C)c2cccnc2)c1` (stereo not shown) [Compound 52, N-(4-(tert-butyl)phenyl)-N-(2-(tert-butylamino)-2-oxo-1-(pyridin-3-yl)ethyl)-1-methyl-1H-imidazole-4-carboxamide], for which the “fold loss of 3CLpro activity relative to imidazole 31” value on SARS-CoV 3CLpro was above 10 fold. On to `CC(C)(C)NC(=O)C(c1ccnnc1)N(C(=O)c1ccco1)c1ccc(C(C)(C)C)cc1` (stereo not shown) [Compound 53], for which, at SARS-CoV 3CLpro, the “3CLpro inhibition, SAR result in words” value is “well tolerated”.

Take `CC(C)(C)NC(=O)C(c1cnccn1)N(C(=O)c1ccco1)c1ccc(C(C)(C)C)cc1` (stereo not shown) [Compound 54]: the “3CLpro inhibition, SAR result in words” value on SARS-CoV 3CLpro is reported as “well tolerated”.

Turning to `Cc1ccc(C(C(=O)NC(C)(C)C)N(C(=O)c2ccco2)c2ccc(C(C)(C)C)cc2)cn1` (stereo not shown) [Compound 55, N-(4-(tert-butyl)phenyl)-N-(2-(tert-butylamino)-1-(6-methylpyridin-3-yl)-2-oxoethyl)furan-2-carboxamide], at SARS-CoV 3CLpro, the “3CLpro inhibition, SAR result in words” value was “not permitted”. Consider `CC(C)(C)NC(=O)C(c1ccncc1)N(C(=O)c1ccco1)c1ccc(C(C)(C)C)cc1` (stereo not shown) [Compound 56], for which the “3CLpro inhibition, SAR result in words” value at SARS-CoV 3CLpro was “weak inhibitors”.

For orientation: EC50 means the concentration giving half of the maximal effect. For orientation: Ki means a measure of affinity in units of concentration, obtained from inhibition or displacement. For the molecule `CC[C@H](NC(=O)[C@@H](NC(=O)OCc1ccccc1)[C@@H](C)OC(C)(C)C)C(=O)N[C@H](C=O)C[C@@H]1CCNC1=O` [TG-0205221], the EC50 in the data set on SARS-CoV is 600 nM. Besides, the Ki at SARS 3CLpro was 52 nM. As to `CN(C)CCCSc1ccccc1NC(=O)/C=C/c1ccccc1` [cinanserin], in data set [2], the “reduction of viral RNA in cell culture media” value is 3 log. Further, at SARS-CoV 3CLpro (100 μM), the “inhibition of SARS-CoV 3CLpro” value was “no inhibition” and the “inhibition of authentic SARS-CoV 3CLpro” value is given as “no inhibition”. Also, the “inhibition of MHV 3CLpro” value in data set [3] was “no inhibition”. Also, the “inhibition of HKU1 3CLpro” value in data set [4] is reported as “no inhibition”.
